From article PMC7667655, “Targeted Covalent Inhibition of Plasmodium FK506 Binding Protein 35” (ACS Medicinal Chemistry Letters, 2020)
Like-named read-outs stand apart in the source and are kept apart here.

Assays:
[1] = target: T1, FKBP35 (Plasmodium falciparum, UniProt Q8I4V8); experiment: Mass spec of FKBP35 incubated with D44 analogs; type: biochemical
T1 construct: FKBP35 Q5 -A128; 6His-SUMO (N, cleaved yes); made in house; host or cells: E. coli BL21 DE3
Method: Prior to DSC experiments 400 µL of the reaction mixture was saved f or mass spectrometry analysis. For intact mass analysis, 100 µL of the reaction mixture was diluted to 0.05 mg/mL and injected onto a ZORBAX StableBond 300 C8 HPLC column [2.1 x 100 mm, 3.5 µm (Agilent)] on an Agilent HPLC binary pump system. Initial m obile phase conditions were 15% acetonitrile/85% water, both containing 0.1% formic acid. Protein was desalted for 2 minutes and eluted from the column with a gradient of 15% to 75% acetonitrile over 10 min. Intact mass measurement was performed on a Q Exa ctive mass spectrometer with an ESI source (Thermo Scientific). Source parameters: spray voltage, 3500 V; capillary temperature, 340°C; sheath gas, 35; auxiliary gas, 5; (gas flows in arbitrary units of the ESI source). MS detection was performed using a Full MS scan acquisition method, scanning over the range 800 -2100 m/z. BioPharma Finder v 3.0 (Thermo Fisher Scientific) was used for data acquisition and analysis. DSC and mass spectrometry experiments were performed in parallel.
For chymotrypsin digestion , 20 µL of the reaction mixture was added to 20 µL of fresh denaturing solution (0.1 M urea, 0.1 M NaCl, adjusted to 10 ml with 50 mM Tris Buffer pH 8.0). Then 10 µL of 10 mM TCEP was added to the mixture, which was then incubated at 37 °C for 60 minutes. To prevent modification of free thiol groups in FKBP proteins during digestion, 4 µL of 50 mM iodoacetamide (IAA, Sigma No. A3221) was added followed by incubation at room temperature in the dark for 30 minutes. After the incubation, the reaction mixture w as brought up to 200 µL with 140 µL of 10 mM Trizma pH 7.5. The peptide fragments were generated by adding chymotrypsin at a molar ratio of 1 chymotrypsin : 100 FKBP protein and incubated overnight at 37 °C. The reaction was quenched by adding 10 µL of form ic acid (~5% of total volume) followed by a few seconds of a vortex pulse.
Samples were analyzed using a Thermo Fisher Scientific Vanquish UHPLC connected to a Q Exactive HF mass spectrometer with a HESI source. Source parameters were as follows: spray voltage, 3500 V; capillary temperature, 300 °C; sheath gas flow, 45; auxiliary gas flow; 10; sweep gas flow, 1; (gas flows in arbitrary units of the HESI source). Digested samples were injected onto an ACQUITY UPLC BEH C18 Column [130Å, 1.7 µm, 2.1 mm X 50 mm (Waters)] held at 45 °C and desalted for 30 s with 5% acetonitrile/95% water, both containing 0.1% formic acid. Peptides were separated using a 5% to 65% acetonitrile gradient over 6.5 min. MS detection was performed using a Full MS/ddMS2 (Top 5) acquisi tion method, scanning over the range 300 -1800 m/z. […]
DSC thermograms were recorded in MicroCal DSC from Malvern with an autosampler. […]

[2] = Cell viability assay (CellTiter-Glo); type: cell-based; details: human
Method: (§1) In 96-well round-bottom plates, sorbitol -synchronized cultures of ring-stage NF54 P. falciparum parasites were established in triplicate and treated with varying concentrations of the inhibitors (25-0.0038 μM) serially diluted in complete medium. Parasite proliferation rates were analyzed after 72 h using the Renilla-Glo Luciferase Assay, and luminescence was measured using the GloMax® Discover Microplate Reader. EC 50 values were obtained from corrected dose-response curves using GraphPad Prism (version 5; GraphPad Software). Data represent the mean % luminescence relative to 5% DMSO-treated (vehicle, 100% growth) and 100 nM chloroquine-treated (no growth) controls.
(§2) In black, clear-bottom 96-well plates (No. 3904 Corning Life Sciences), HEK293T cells were plated at 2x10^5 cells/mL in DMEM high glucose, pyruvate media (ThermoFisher Scientific, cat. 11995073) supplemented with 10% FBS and 1% pen -strep (100 μL final volume). Cells were incubated overnight at 37°C, 5% CO2. Using a Tecan D300e digital dispenser, cells were dosed in triplicate […]
(§3) concentration, 100 mM stock in DMSO) and Carfilzomib (10 µM to 4.6 nM final concentration, 10 mM stock in DMSO) normalizing DMSO to 0.25%. Cells were then incubated at 37 °C, 5% CO2 for 72 hours. Following incubation, cells were treated with 70 µL CellTiter-Glo® Luminescent Cell Viability Assay Reagent (Promega, cat. G7570) and incubated in the dark at room temperature for 30 minutes. Plates were read using an EnVision Multimode Plate Reader (PerkinElmer). Cell viability data was normalized to DMSO controls and analyzed in GraphPad Prism 8 by fitting the data to “[Inhibitor] vs. normalized response – variable slope” model to obtain the curves.
Each compound was prepared in duplicate at 1 µM final concentration (0.2% DMSO) in human or mouse plasma (Aldrich). […]
After quenching, samples were centrifuged to pellet precipitated partic ulates and an aliquot of supernatant was diluted 1:1 with water. The resulting solution was analyzed by UPLC -MS/MS with compounds detected by MRM detection on a triple quadrupole mass spectrometer. […]

[3] = target: T2, FKBP12 (Homo sapiens, UniProt P62942); experiment: Differential scanning calorimetry, FKBP12; type: binding; details: compound 40 µM
T2 construct: 6His-SUMO (N, cleaved yes); made in house; host or cells: E. coli (identical protocol to FBD35, BL21 DE3)

[4] = Plasma stability assay, mouse; type: in vitro ADME; details: percent remaining, 1 µM, 37 °C, 5 hours
Method: as §1, §2, §3
(§4) Each compound was prepared in duplicate at 1 µM final concentration (0.2% DMSO) in human or mouse plasma (Aldrich). Samples were incubated at 37 °C for 5 hours with mixing at 350 rpm on an orbital shaker. Aliquots of each sample were taken at time zero and following 5 hours. Each sample was quenched by adding acetonitrile in a 3:1 ratio and further diluting with 50 µl of PBS.
(§5) After quenching, samples were centrifuged to pellet precipitated partic ulates and an aliquot of supernatant was diluted 1:1 with water. The resulting solution was analyzed by UPLC -MS/MS with compounds detected by MRM detection on a triple quadrupole mass spectrometer. The ratio of compound peak areas at 0 and 5 hours were use d to calculate the percent remaining.

[5] = target: T2, FKBP12; experiment: Fluorescence polarization competition, FKBP12; type: binding
[6] = Plasma stability assay, human; type: in vitro ADME; details: percent remaining, 1 µM, 37 °C, 5 hours
Method: as §1, §2, §3, §4, §5

[7] = target: T3, FBD35 (PfFKBP35 binding domain) (Plasmodium falciparum, UniProt Q8I4V8); experiment: Fluorescence polarization competition, FBD35
T3 construct: FKBP35 Q5 -A128; 6His-SUMO (N, cleaved yes); made in house; host or cells: E. coli BL21 DE3

[8] = target: T4, nLuc-tagged full length PfFKBP35 (Plasmodium falciparum, UniProt Q8I4V8); experiment: NanoBRET cellular target engagement, nLuc-FKBP35; type: cell-based
T4 construct: nanoluciferase-tagged (nLuc) full length PfFKBP35 or nLuc-tagged FKBP12; expressed in transfected cells

[9] = target: T3, FBD35 (PfFKBP35 binding domain); experiment: Differential scanning calorimetry, FBD35; details: read-out: FBD35 ΔTM
[10] = tested on: NF54 P. falciparum parasites; experiment: P. falciparum strain NF54 growth-inhibition assay; type: cell-based; details: Plasmodium falciparum; luciferase reporter NF54 line, 72 h
Method: Figure 6 P. falciparum strain NF54 growth-inhibition assay. […] Proliferation was measured by luminescence after a complete life-cycle and normalized to DMSO (100%) and chloroquine (100 nM, 0%). (B) Structural differences between synthetic ligands and compound IC50s (μM).
Substrate and Extracellular NanoLuc® Inhibitor (Promega, cat. N2160) were diluted at 1:166 and 1:500, respectively, in Opti -MEM I Reduced Serum Media. 25 µL of this solution was added to each well and plate was read immediately using an EnVision Multimode Plate Reader (PerkinElmer). The BRET ratio was calculated using the following formula:
BRET ratio = acceptorsample – acceptorno tracer control donorsample donorno tracer control
NanoBRET Target Engagement Assay (384-well)
HEK293T cells stably expressing either nLuc-FKBP12 or nLuc-FKBP35 were plated at 0.2×10^6 cells/mL in white, clear -bottom 384-well plates (Sigma Aldrich) in Opti -MEM I Reduced Serum Media (ThermoFisher Scientific) using a Mutidrop Combi Reagent Dispenser (ThermoFisher Scientific). Cells were incubated overnight at 37 °C, 5% CO 2. Using a Tecan D300e, the Rap-Gly-BDP tracer was added to cells to 1 µM. Plates were shaken at 700 RPM on an orbital plate shaker and incubated at 37 °C, 5% CO 2 for 10 minutes. Test compounds were added at the indicated concentrations using a Tecan D300e. Plates were shaken at 700 RPM on an orbital plate shaker and incubated at 37 °C, 5% CO 2 for 2 hours. NanoBRET Nano -Glo Substrate and Extracellular NanoLuc® Inhibitor (Promega, cat. N2160) were diluted at 1:166 and 1:500, respectively, in Opti-MEM I Reduced Serum Media. 10 µL of this solution was added to each well and plate was read immediately using an EnVision Multimode Plate Reader (PerkinElmer). The BRET ratio was calculated using the above formula.
Parasite Culture and Inhibition
NF54 P. falciparum parasites constitutively expressing Renilla luciferase (RLuc) and Blasticidin-S deaminase under the PfHsp86 5’ and PfHRP2 3‘ regulatory sequences integrated in the cg6 chromosomal locus 4 were maintained continuous ly in media consisting of human erythrocytes at 2% haematocrit (O+) resuspended in RPMI 1640 (Gibco® 31800022) supplemented with 5% Albumax (Gibco® 11021045; complete medium) and 2.5 µg/mL of Blasticidin (RPI Corp B12150-0.1) in a gas mixture consisting of 5% CO2, 1% O2, and 94% N2 at 37 °C (Trager and Jensen 2005).
Parasitemia was determined every 48 h through microscopic examination of thin blood smears fixed in methanol, stained with 10% Giemsa solution, and sub-cultured to 0.5-1% parasitaemia.
Compound susceptibility assays
as §1, §2
concentration, 100 mM stock in DMSO) and Carfilzomib (10 µM to 4.6 nM final concentration, 10 mM stock in DMSO) normalizing DMSO to 0.25%. Cells were then incubated at 37 °C, 5% CO2 for 72 hours. Following incubation, cells were treated with 70 µL CellTiter-Glo® Luminescent Cell […]

[11] = target: T5, nLuc-tagged FKBP12 (Homo sapiens, UniProt P62942); experiment: NanoBRET cellular target engagement, nLuc-FKBP12; type: cell-based
T5 construct: full length Plasmodium falciparum FKBP35 and human FKBP12 DNA were; expressed in transfected cells

[12] = tested on: Plasmodium cultured parasites; details: Figure 1; read-out: IC50 in blood-stage antiplasmodium assays; cited from earlier work

T1 sequence (Q8I4V8 5-128): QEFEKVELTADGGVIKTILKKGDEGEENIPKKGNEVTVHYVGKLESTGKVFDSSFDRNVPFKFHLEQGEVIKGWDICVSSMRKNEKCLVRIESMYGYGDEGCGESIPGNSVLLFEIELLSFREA
T2 sequence (P62942 whole entry): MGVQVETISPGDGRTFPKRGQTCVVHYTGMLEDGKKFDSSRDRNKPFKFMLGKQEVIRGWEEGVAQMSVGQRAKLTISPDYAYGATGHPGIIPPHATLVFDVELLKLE
T3 sequence (Q8I4V8 5-128): as the sequence (Q8I4V8 5-128) above
T4 sequence (Q8I4V8 whole entry): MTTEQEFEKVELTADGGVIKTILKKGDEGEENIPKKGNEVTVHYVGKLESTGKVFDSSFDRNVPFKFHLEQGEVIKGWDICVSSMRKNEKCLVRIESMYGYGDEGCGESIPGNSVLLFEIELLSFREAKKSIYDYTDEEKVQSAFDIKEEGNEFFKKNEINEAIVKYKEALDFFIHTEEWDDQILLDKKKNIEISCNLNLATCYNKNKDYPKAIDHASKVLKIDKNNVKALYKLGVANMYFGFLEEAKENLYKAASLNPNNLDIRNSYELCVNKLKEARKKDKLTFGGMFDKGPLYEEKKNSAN
T5 sequence (P62942 whole entry): as the sequence (P62942 whole entry) above

Structure (SMILES): C=CC(=O)NCc1ccc(NC(=O)CSc2nc3cccnc3[nH]2)cc1 [D44c]
- % Abundance of modified FKBP35 ([1]; incubation temp 37 °C): 37.0%
- % Abundance of modified FKBP35 ([1]; incubation temp RT): 17.1%

Structure (SMILES): C=CC(=O)NCc1ccccc1NC(=O)CSc1nc2cccnc2[nH]1 [D44a]
- % Abundance of modified FKBP35 ([1]; incubation temp 37 °C): 4.1%
- % Abundance of modified FKBP35 ([1]; incubation temp RT): 11.5%

Structure (SMILES): CC(C)C[C@H](NC(=O)[C@H](CCc1ccccc1)NC(=O)CN1CCOCC1)C(=O)N[C@@H](Cc1ccccc1)C(=O)N[C@@H](CC(C)C)C(=O)[C@@]1(C)CO1 [carfilzomib]
- IC50 at 72 h [2]: 15 nM

Structure (SMILES): CCC(=O)OCC(C)(C)C(=O)C(=O)N1CCCC[C@H]1C(=O)O[C@H](CCc1ccc(OC)c(OC)c1)c1ccccc1 [2d]
- ΔTm at 40 µM [3]: 5.9 °C
- Plasma Stability (mouse) [4]: 0%
- IC50 [5]: 43 nM
- Plasma Stability (human) [6]: 1%
- IC50 [7]: 99 nM
- IC50 [8]: 1310 nM
- ΔTm at 40 µM [9]: 3 °C
- IC50 [10]: 9900 nM
- IC50 [11]: 454 nM

Structure (SMILES): CC[C@H]1CN(Cc2ccccn2)C(=O)[C@@H]2CCC[C@H]1N2S(=O)(=O)c1cc(Cl)cc(Cl)c1 [[4.3.1]-ABS]
- IC50 [12]: 2300 nM

Structure (SMILES): CO[C@H]1C[C@@H]2CC[C@@H](C)[C@@](O)(O2)C(=O)C(=O)N2CCCC[C@H]2C(=O)O[C@H]([C@H](C)C[C@@H]2CC[C@@H](O)[C@H](OC)C2)CC(=O)[C@H](C)/C=C(\C)[C@@H](O)[C@@H](OC)C(=O)[C@H](C)C[C@H](C)/C=C/C=C/C=C/1C [Rapamycin, reference compound]
- IC50 [10]: 1100 nM
- IC50 at 72 h ([2]; HEK293T cells, HEK293T, 72 hour treatment, read-out: IC50 cell viability): 63000 nM
